Reference: ChEMBL document CHEMBL5143755, “Restoration of Motor Function Post-Neurological Injury Using Serotonergic Agonist” (ACS Med Chem Lett, 2022)

Target: 5-hydroxytryptamine receptor 2A (Homo sapiens, UniProt P28223)
Assay: Agonist activity at human 5-HT2A receptor assessed as activation of calcium mobilization incubated for 2 mins by Calcium-6 dye based FLIPR assay
Assay type: functional

5-hydroxytryptamine receptor 2A, sequence (P28223 whole entry): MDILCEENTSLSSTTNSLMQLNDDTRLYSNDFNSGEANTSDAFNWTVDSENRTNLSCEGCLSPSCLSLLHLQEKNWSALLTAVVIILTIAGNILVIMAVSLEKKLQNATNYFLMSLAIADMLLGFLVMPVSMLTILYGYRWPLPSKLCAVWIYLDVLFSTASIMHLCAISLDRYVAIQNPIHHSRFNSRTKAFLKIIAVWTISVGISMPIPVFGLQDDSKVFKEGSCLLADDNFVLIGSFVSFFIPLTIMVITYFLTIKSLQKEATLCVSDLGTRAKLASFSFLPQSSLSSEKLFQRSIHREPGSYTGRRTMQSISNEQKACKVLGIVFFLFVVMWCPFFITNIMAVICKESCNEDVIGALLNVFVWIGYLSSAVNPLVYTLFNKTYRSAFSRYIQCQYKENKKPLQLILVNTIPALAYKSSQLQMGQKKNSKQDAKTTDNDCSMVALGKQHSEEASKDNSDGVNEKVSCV

First: [2H]C1([2H])CC(c2c[nH]c3cccc(O)c23)C([2H])([2H])N1 (stereo not given)
Second: [2H]C1([2H])CC(c2c[nH]c3cccc(O)c23)C([2H])([2H])N1C (stereo not given)
The EC50 of the first is higher: > 10 µM for the first, < 1 µM for the second.

Compared with `[2H]C([2H])N1CCC(c2c[nH]c3cccc(O)c23)C1` (stereo not given), `[2H]C1([2H])CC(c2c[nH]c3cccc(OCc4ccccc4)c23)C([2H])([2H])N1C` (stereo not given) is higher in EC50: < 1 µM for the first, > 10 µM for the second. The first is the more potent here.

For `[2H]C1([2H])CC(c2c[nH]c3cccc(OCc4ccccc4)c23)C([2H])([2H])N1` (stereo not given), the EC50 was < 1 µM.
